# Assay results reported in patent US20260356817A1, “AMINOPYRIMIDINE AND AMINOTRIAZINE DERIVATIVES AS MYC PROTEIN MODULATORS” (Sanford Burnham Prebys Medical Discovery Institute, priority 2022, published 2026).
# Read-outs that look alike come from different tables or passages of the source.
# Assays:
# Myc [1] = assay: Western blot of Myc in cultured medulloblastoma PDX cells; type: cell-based, human (patient-derived); conditions: 0.18 μM, Western blot (FIG. 4A)
# Description: (§1) Medulloblastoma PDX cells were harvested from the brains of tumor-bearing mice, cultured overnight, and then treated with Compound 171 for various amounts of time. Cells cultured for time points of 1 hour, 2 hours, and 4 hours were lysed and subjected to Western blotting with antibodies specific for Myc or GAPDH as control, as shown in FIG. 4A. Cells cultured for longer time points of 48 hours and 96 hours were assayed for viability using the CellTiter Glo assay, as shown in FIG. 4B and FIG. 4C.
# Myc [2] = assay: Myc inhibition assay: Myc expression per cell by anti-Myc immunofluorescence, high-content imaging; type: cell-based, human (patient-derived medulloblastoma xenograft cells); conditions: for IC50: medulloblastoma PDX cells, 4 h
# Method in brief: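 Cells from Myc-driven medulloblastoma patient-derived orthotopic xenografts, propagated only in NSG mouse cerebellum, were dissociated and plated in serum-free medium. After overnight recovery, compounds were applied for 4 hours; cells were then fixed, stained for Myc and DAPI, and per-cell Myc quantified by high-content imaging to derive IC50.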
# Myc [3] = assay: Western blot of Myc in HL-60 cells (acute promyelocytic leukemia); type: cell-based; conditions: 0.18 μM and 1.0 μM, 4 hours, Western blot (FIG. 5B)
# Description: (§2) Cell lines derived from acute monocytic leukemia, acute promyelocytic leukemia, pancreatic adenocarcinoma and small cell lung cancer were treated with vehicle (DMSO) or the indicated concentrations of Compound 171 for 4 hours, and then lysed and subjected to Western blotting using antibodies specific for Myc or GAPDH as control.
# Myc [4] = assay: Western blot of Myc in H-82 cells (small cell lung cancer); type: cell-based; conditions: 0.18 μM and 1.0 μM, 4 hours, Western blot (FIG. 5D)
# Description: as §2
# [5] = Plasma and brain concentrations in NSG mice after oral administration (LCMS); type: in vivo, mice (non-tumor-bearing NSG); conditions: 100 mg/kg oral
# Description: Non-tumor-bearing NOD-SCID-IL2Rgamma knockout (NSG) mice were treated with Compound 171 at 100 mg/kg via oral administration. Blood was collected retro-orbitally or by cardiac puncture for measuring compound concentrations. For measurements of compound concentration in the brain, animals were sacrificed, and brain tissue was harvested and homogenized. Compound concentration was determined by liquid chromatography-mass spectrometry (LCMS).
# [6] = tested on: PDX511 medulloblastoma cells; assay: Cell viability of PDX511 medulloblastoma cells at 4 hours; type: cell-based, human (patient-derived)
# Myc [7] = assay: Myc levels in intracranial medulloblastoma PDX tumors in mice after oral administration (Western blot); type: in vivo, NSG mice transplanted with medulloblastoma PDX cells
# Description: NSG mice transplanted with medulloblastoma PDX cells were treated by oral administration with either vehicle (10% DMSO, 10% Tween 80) or Compound 171 (100 mg/kg). After 5.5 hours, animals were sacrificed, and tumors were harvested, dissociated, lysed and subjected to Western blotting with antibodies specific for Myc or GAPDH as control.
# [8] = tested on: retinoblastoma (Rb) protein; assay: Rb protein expression in PDX511 medulloblastoma cells (immunofluorescence); type: cell-based, human (patient-derived)
# Myc [9] = assay: Western blot of Myc in BxPC-3 cells (pancreatic adenocarcinoma); type: cell-based; conditions: 0.18 μM and 1.0 μM, 4 hours, Western blot (FIG. 5C)
# Description: as §2
# [10] = tested on: medulloblastoma PDX cells; assay: CellTiter Glo viability of medulloblastoma PDX cells; type: cell-based, human (patient-derived); conditions: 0.18 μM
# Description: as §1
# Myc [11] = assay: Western blot of Myc in THP-1 cells (acute monocytic leukemia); type: cell-based; conditions: 0.18 μM and 1.0 μM, 4 hours, Western blot (FIG. 5A)
# Description: as §2
smiles,measurement,setting,value
"FC(F)(F)c1cccc(Nc2nccc(-c3ccc4nc[nH]c4c3)n2)c1 [Compound 171, 4-(1H-Benzo[d]imidazol-6-yl)-N-(3-(trifluoromethyl)phenyl)pyrimidin-2-amine 2HCl]",inhibition of Myc expression at 2 and 4 hours,Myc [1]; 2 and 4 hours vs 1 hour,greater inhibition
same,time of first inhibition of Myc expression,Myc [1],≤ 1 h
same,Myc expression inhibition (in words),Myc [2]; PDX511 medulloblastoma cells (FIG. 3A),Myc expression inhibition
same,IC50,"Myc [2]; Table 1, read-out: IC50 (Myc inhibition)",< 200 nM
same,IC50,"Myc [2]; Table 2, read-out: MYC Inhibition IC50",< 200 nM
same,"inhibition of Myc, HL-60",Myc [3],substantial inhibition of Myc
same,"inhibition of Myc, H-82",Myc [4],substantial inhibition of Myc
same,blood-brain-barrier crossing and retention in the brain,[5],ability to cross the blood-brain-barrier with good retention in the brain
same,time for which brain concentration remained above the IC90 level,[5]; brain,more than 6 hours
same,time for which plasma concentration remained above the IC90 level,[5]; plasma,more than 6 hours
same,effect on cell viability,[6],no effect
same,reduction of Myc levels in intracranial tumors,Myc [7]; 100 mg/kg oral (FIG. 7),reduction of Myc levels
same,mice with undetectable Myc expression in intracranial tumors,"Myc [7]; 100 mg/kg oral, after more than 5 hours (5.5 hours), Western blot",3 out of 6
same,effect on expression of the retinoblastoma (Rb) protein,[8],no effect
same,"inhibition of Myc, BxPC-3",Myc [9],substantial inhibition of Myc
same,reduction in cell viability by 48 hours,"[10]; 48 hours, CellTiter Glo (FIG. 4B)",80%
same,reduction in cell viability by 96 hours,"[10]; 96 hours, CellTiter Glo (FIG. 4C)",100%
same,"inhibition of Myc, THP-1",Myc [11],substantial inhibition of Myc
